Assays:
[1] = tested on: primary rat cortical neurons injured with glutamate; assay: Effect in rat primary cortical neurons after glutamate injury; format: cell-based
Description: A., et al., 1999. J Neurosci 19: 2455-2463 and Callizot.
The medium was changed every 2 days. The cortical neurons were intoxicated with glutamate solution.
The following conditions were assessed: • Control (culture medium) • + glutamate (40 μM, 20 min) • + glutamate (40 μM, 20 min)+CR777 (at each concentration)

[2] = tested on: primary rat motor neurons injured with glutamate; assay: Primary motor neuron culture survival after glutamate exposure (in vitro ALS model); format: cell-based; conditions: CR777 between 1 nM and 10 nM, added 1 h before glutamate (5 μM, 20 min, then 48 h)
Description: The aim of this study was to study the effect of CR777 on primary motor neuron culture from rat spinal cord (SC) injured by glutamate exposure (a well validated in vitro ALS model and model of motor neuron diseases).
Rat SC motor neurons were cultured as described by Martinou et al., Neuron. 1992 April; 8(4):737-44 and Wang et al., Hum Mol Genet. 2013 Dec. 1; 22(23):4706-19. Briefly, pregnant female rats (Wistar, Janvier labs) of 14 days gestation were killed by cervical dislocation. […] Cells were then centrifuged at 180 g for 10 min at +4° C. on a layer of BSA (3.5%) in L15 medium. […] The medium was changed every day.
The following conditions were assessed: • Control • + glutamate (5 μM 20 mn then 48 h) • + glutamate (5 μM 20 mn then 48 h)+CR777 1 pmol/L • + glutamate (5 μM 20 mn then 48 h)+CR777 10 pmol/L • + glutamate (5 μM 20 mn then 48 h)+CR777 100 pmol/L • + glutamate (5 μM 20 mn then 48 h)+CR777 1 nmol/L • + glutamate (5 μM 20 mn then 48 h)+CR777 10 nmol/L • + glutamate (5 μM 20 mn then 48 h)+CR777 100 nmol/L • + glutamate (5 μM 20 mn then 48 h)+CR777 1 μmol/L • + glutamate (5 μM 20 mn then 48 h)+CR777 10 μmol/L […]
For each condition, 6 wells were assessed, 30 pictures per well were taken using ImageXpress (Molecular Devices) with 20× magnification, to assess motor neuron survival (MAP-2). […]

What does the source list for `CC1=C(CO)C(=O)O[C@@H]([C@@H](C)[C@H]2CCC3C4C[C@H](SC[C@H](NC(=O)CC[C@@H](N)C(=O)O)C(=O)NCC(=O)O)[C@]5(O)[C@@H](O)C=CC(=O)[C@]5(C)C4CC[C@@]32C)C1` (stereo partly shown) [CR777]?
neurite network ([1]; CR777 1 pmol/L to 10 μmol/L overall, glutamate 40 μM, 20 min): moderate neuroprotective effect; neuron survival ([1]; CR777 100 pM, added 1 h before glutamate (40 μM, 20 min) and let for 48 h): significantly protected neurons from death; neuron survival ([1]; CR777 from 1 nM up to 1 μM, glutamate 40 μM, 20 min): full protection; concentration at which the maximal effect on neurite network was observed ([1]; glutamate 40 μM, 20 min): 1 µM; concentration at which the maximal effect on neuron survival was reached ([1]; glutamate 40 μM, 20 min, dose dependent): 10 nM; neurite network ([1]; only the doses of 10, 100 pM and 1 μM, glutamate 40 μM, 20 min): significantly protected the neurite network; motor neuron survival [2]: moderate and significant protective effect
